Key:
c-Fos [1] = experiment: c-Fos immunohistochemistry in mPFC of CUMS mice; format: in vivo, mouse; conditions: 10 mg/kg i.p.
Procedure: Figure 7 SYR effects on the expression of c-Fos and synaptic proteins in mPFC. (A) Representative immunohistochemical images of c-Fos expression in mPFC under the indicated treatments. Immunohistochemistry of c-Fos was performed with mPFC slices as described in Section 4. The slices were re-probed with anti-DAPI antibody. Immunofluorescence images for c-Fos (green) and DAPI (blue) were acquired by confocal microscopy. (B) Quantitative analysis for c-Fos expression in mPFC with various treatments. Protein expression is expressed as a percentage of c-Fos fluorescence measured in the control group. Bars represent the mean ± SEM (n = 4). * p < 0.05, ** p < 0.01 compared with the control or CUMS group by one-way ANOVA followed by post hoc tests, respectively. (C) Representative immunoblots of the synaptic proteins BDNF, PSD-95, GluA1, and vGluT1 with various treatments. (D–G) Quantification of the expression of the synaptic proteins BDNF (D), PSD-95 (E), GluA1 (F), and vGluT1 (G). The expression level is expressed as a percentage of the integrated density obtained from the control group. Bars represent the mean ± SEM (n = 4). * p < 0.05, ** p < 0.01 by one-way ANOVA followed by post hoc tests.
Mouse mPFC and hippocampal slices were prepared as previously described. […]

[2] = system: BDNF, PSD-95, GluA1, and vGluT1; experiment: Immunoblot of synaptic proteins in hippocampus of CUMS mice; format: in vivo, mouse; conditions: same dosage as fluoxetine (10 mg/kg i.p.)
Source text: (§1) Figure 8 SYR effects on the expression of c-Fos and synaptic proteins in the hippocampus. (A) Representative immunohistochemical images of c-Fos expression in the hippocampus with the indicated treatments. (B) Quantitative analysis for hippocampal c-Fos expression with various treatments. Protein expression level is expressed as a percentage of c-Fos fluorescence measured in the control group. Bars represent the mean ± SEM (n = 4). ** p < 0.01 compared with the control or CUMS group by one-way ANOVA followed by post hoc tests. (C) Representative immunoblots of the synaptic proteins BDNF, PSD-95, GluA1, and vGluT1 with various treatments. (D–G) Quantification of the expression of synaptic proteins BDNF (D), PSD-95 (E), GluA1 (F), and vGluT1 (G). The expression level is expressed as a percentage of the integrated density obtained from the control group. Bars represent the mean ± SEM (n = 4). * p < 0.05, ** p < 0.01 by one-way ANOVA followed by post hoc tests.
Synaptic proteins were extracted from mPFC or hippocampus tissues using RIPA lysis buffer, respectively. Expression of the indicated proteins under various treatments was then analyzed by immunoblotting, as previously reported. […] Quantification of immunoreactive protein bands was performed using Image J v1.53u, and GAPDH was used as an internal reference to normalize expression levels of those proteins, respectively.

CUMS mice [3] = experiment: Tail suspension test (TST) in CUMS mice; format: in vivo, mouse; conditions: 10 mg/kg, i.p., 2 weeks
Procedure: (§2) C57BL/6 adult (6–8 weeks, body weight, 18–22 g) male mice were maintained and handled in a standard condition at the Experimental Animal Center of Southern Medical University (Guangzhou, China). Animal use was approved by the Animal Use and Care Committee of Southern Medical University (approved code: SMUL2021177, approved date: 12 December 2021). The CUMS procedure was carried out according to a protocol described previously. Except for those in the control group, mice were randomly exposed to two mild unpredictable stressors per day for 3 weeks. The stressors included water deprivation, restraint, tilted cage, wet/no bedding, rotation, peppermint, noise, and inverted light off/on. Mice in the control group were group housed without any stressors throughout the procedure. […] NSFT was performed after 16 h food deprivation, as described previously. The mouse was placed in an open field (24 × 40 × 14 cm), where a new chow was put in the center, and the latency time to bite food was counted over 10 min. Home cage feeding within a 20 min period was measured after the test. FST was carried out according to a protocol described previously. The mouse was placed into a beaker (Bomex, Beijing, China) with a height of 18 cm filled with water (22 ± 1 °C) for 6 min. The immobile time was measured during minutes 2–6. TST was performed according to a previous description. The mouse was suspended from a hook that hung from a suspension bar by placing a piece of adhesive tape on its tail about 1 cm away from the tip. The immobile time during minutes 2–6 was measured.

CUMS mice [4] = experiment: Home cage food consumption after NSFT; format: in vivo, mouse; conditions: all tested dosages, in comparison with the control group
Procedure: Figure 6 Animal behavioral tests. (A) Schematic illustration of animal behavioral test timeline. Mice were exposed to CUMS for 3 weeks, as described in Section 4. […] For the CUMS group, saline was given instead of drugs. NSFT was performed after 16–18 h food deprivation, followed by FST and TST. (B) NSFT. The latency time to food in NSFT was counted. (C) Home cage food consumption. Food consumed by individual mice in the home cage (g) within a 20 min period was measured after NSFT. (D) FST. The immobility time during a 2 to 6 min period in FST was measured. (E) TST. The immobility time during 2 to 6 min was counted. n = 8–10 mice/group. Bars represent the mean ± SEM. * p < 0.05 compared with the control or CUMS group, respectively, by one-way ANOVA followed by post hoc tests. ns, not significant.
NSFT was performed after 16 h food deprivation, as described previously. The mouse was placed in an open field (24 × 40 × 14 cm), where a new chow was put in the center, and the latency time to bite food was counted over 10 min. Home cage feeding within a 20 min period was measured after the test. FST was carried out according to a protocol described previously. The mouse was placed into a beaker (Bomex, Beijing, China) with a height of 18 cm filled with water (22 ± 1 °C) for 6 min. The immobile time was measured during minutes 2–6. […] The immobile time during minutes 2–6 was measured.

CUMS mice [5] = conditions: all tested dosages, i.p.
CUMS mice [6] = experiment: Novelty suppressed feeding test (NSFT) in CUMS mice; format: in vivo, mouse; conditions: 10 mg/kg, i.p., 2 weeks
Procedure: as §2

CUMS mice [7] = experiment: Forced swim test (FST) in CUMS mice; format: in vivo, mouse; conditions: 10 mg/kg, i.p., 2 weeks
Procedure: as §2

c-Fos [8] = experiment: c-Fos immunohistochemistry in hippocampus of CUMS mice; format: in vivo, mouse; conditions: same dosage as fluoxetine (10 mg/kg i.p.)
Source text: as §1
Mouse mPFC and hippocampal slices were prepared as previously described. Briefly, mice were deeply anesthetized with 4% pentobarbital sodium (Sigma-Aldrich, Saint Louis, MI, USA), and perfused transcardially with PBS, followed by 4% phosphate-buffered paraformaldehyde. […]

[9] = Daily body weight during drug administration; conditions: all tested dosages, 14-day administration, in comparison with the control group
[10] = set-up: method as in PMID 21869687, PMID 25500685; conditions: clinically observed; cited from earlier work
5-HT1A receptor = system: 5-HT1A receptor; set-up: method as in PMID 27508501; conditions: higher potency than its inhibition of SERT activity; cited from earlier work

Compound	CUMS-induced decrease in expression of c-Fos in mPFC (c-Fos [1])	CUMS-induced decrease in expression of synaptic proteins in the hippocampus [2]	CUMS-induced increase in immobility in TST (CUMS mice [3])	home cage food consumption (CUMS mice [4])	fatality rate (CUMS mice [5])	CUMS-induced increase in latency to food in NSFT (CUMS mice [6])	CUMS-induced increase in immobility in FST (CUMS mice [7])	CUMS-induced decrease in expression of c-Fos in the hippocampus (c-Fos [8])	daily body weight changes [9]	sexual dysfunction [10]	weight gain [10]	action at 5-HT1A receptor (5-HT1A receptor)
CNCCC(Oc1ccc(C(F)(F)F)cc1)c1ccccc1 (stereo not drawn) [fluoxetine, reference compound]	reversed	effectively alleviate	remarkably alleviated	little effect	zero fatality rate	remarkably alleviated	remarkably alleviated	effectively alleviate	little effect	–	–	–
N#Cc1ccc2[nH]cc(CCCCN3CCN(c4ccc5oc(C(N)=O)cc5c4)CC3)c2c1 [vilazodone]	–	–	–	–	–	–	–	–	–	not associated with sexual dysfunction	reduce weight gain	partial agonist

From PMC11678425, “(-)-Syringaresinol Exerts an Antidepressant-like Activity in Mice by Noncompetitive Inhibition of the Serotonin Transporter” (Pharmaceuticals, 2024)
